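Method: 48-hour compound exposure of cells in 96-well plates, five concentrations, linear interpolation of endpoints. GI50 = concentration required for 50% inhibition of growth.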 The source made the active and inactive calls. No stated cut-off is given here; in the data, active = GI50 up to about 1.1 µM and inactive = higher.
Key:
Test in all cases: DTP human tumour cell line panel, 48 h
Malme-3M = system: Malme-3M
SK-MEL-28 = system: SK-MEL-28
HL-60 = system: HL-60
SK-OV-3 = system: SK-OV-3
A549 = system: A549
HOP-62 = system: HOP-62
A498 = system: A498
KM12 = system: KM12
HCT-116 = system: HCT-116
MOLT-4 = system: MOLT-4
LOX IMVI = system: LOX IMVI
IGROV-1 = system: IGROV-1
NCI-H23 = system: NCI-H23
OVCAR-5 = system: OVCAR-5
OVCAR-8 = system: OVCAR-8
SK-MEL-5 = system: SK-MEL-5

Measured: GI50

CC1CCC(O)C(C(O)CC2CC(=O)N(C)C(=O)C2)C1 (configuration not stated)
inactive: Malme-3M > 100 µM | SK-MEL-28 > 100 µM | HL-60 > 100 µM | SK-OV-3 > 100 µM | A549 > 100 µM | HOP-62 > 100 µM | A498 > 100 µM | KM12 > 100 µM | HCT-116 > 100 µM | MOLT-4 > 100 µM | LOX IMVI > 100 µM | IGROV-1 > 100 µM | NCI-H23 > 100 µM | OVCAR-5 > 100 µM | OVCAR-8 > 100 µM

C[N+](C)=c1nc(N2CCc3ccccc3C2)ss1.[O-][Cl+3]([O-])([O-])[O-]
inactive: Malme-3M > 100 µM | SK-MEL-28 > 100 µM | HL-60 34.2 µM | SK-OV-3 > 100 µM | A549 > 100 µM | HOP-62 > 100 µM | A498 > 100 µM | KM12 > 100 µM | HCT-116 81.3 µM | MOLT-4 30.7 µM | IGROV-1 > 100 µM | SK-MEL-5 > 100 µM | OVCAR-8 > 100 µM

CC1=C(C#N)C(N)=C2C(C)=C(C#N)C(N)=C12
inactive: Malme-3M > 100 µM | HL-60 > 100 µM | SK-OV-3 > 100 µM | A549 > 100 µM | HOP-62 > 100 µM | A498 > 100 µM | KM12 > 100 µM | HCT-116 > 100 µM | MOLT-4 > 100 µM | LOX IMVI > 100 µM | IGROV-1 > 100 µM | NCI-H23 > 100 µM | SK-MEL-5 > 100 µM | OVCAR-5 > 100 µM | OVCAR-8 > 100 µM

CCCCCCCCCC(=O)Oc1cccc2onc(C)c12
inactive: Malme-3M > 100 µM | SK-MEL-28 > 100 µM | HL-60 19.4 µM | SK-OV-3 > 100 µM | A549 > 100 µM | HOP-62 > 100 µM | KM12 77.4 µM | HCT-116 > 100 µM | MOLT-4 66.8 µM | LOX IMVI > 100 µM | IGROV-1 > 100 µM | NCI-H23 > 100 µM | SK-MEL-5 > 100 µM | OVCAR-5 > 100 µM | OVCAR-8 > 100 µM

COc1ccc([C@H]2CC(=O)N3CCCC3N2)cc1 (some centres not stated)
inactive: Malme-3M > 100 µM | SK-MEL-28 > 100 µM | HL-60 > 100 µM | SK-OV-3 > 100 µM | A549 > 100 µM | HOP-62 > 100 µM | A498 > 100 µM | KM12 > 100 µM | HCT-116 > 100 µM | MOLT-4 > 100 µM | IGROV-1 > 100 µM | NCI-H23 > 100 µM | SK-MEL-5 > 100 µM | OVCAR-5 > 100 µM | OVCAR-8 > 100 µM

Cc1nn2c(=O)n(-c3cccc(-n4nnc5c(-c6ccccc6)c(C)nn5c4=O)c3C)nnc2c1-c1ccccc1
inactive: Malme-3M 14.2 µM | HL-60 18.2 µM | SK-OV-3 > 100 µM | A549 33.3 µM | HOP-62 97.7 µM | A498 83.6 µM | KM12 > 10 µM | HCT-116 15.8 µM | MOLT-4 11.1 µM | LOX IMVI 27.7 µM | IGROV-1 22.4 µM | NCI-H23 98.4 µM | SK-MEL-5 16.6 µM | OVCAR-5 > 100 µM | OVCAR-8 24.7 µM

Brc1ccc2c(c1)C1(c3cc(Br)ccc3-2)c2cc(Br)ccc2-c2ccc(Br)cc21
inactive: Malme-3M > 100 µM | SK-MEL-28 > 100 µM | HL-60 > 100 µM | SK-OV-3 > 100 µM | A549 > 100 µM | HOP-62 > 100 µM | KM12 > 100 µM | HCT-116 > 100 µM | MOLT-4 > 100 µM | LOX IMVI > 100 µM | IGROV-1 > 100 µM | NCI-H23 > 100 µM | OVCAR-5 > 100 µM | OVCAR-8 > 100 µM

CCOC(=O)C1S/C(=N\c2ccc(Cl)c(Cl)c2)N=C1C (configuration not stated)
inactive: Malme-3M 51.6 µM | SK-MEL-28 73.8 µM | HL-60 20.4 µM | SK-OV-3 53.8 µM | A549 28.4 µM | HOP-62 56.9 µM | A498 26 µM | KM12 27.9 µM | MOLT-4 18.8 µM | LOX IMVI 23.4 µM | IGROV-1 48.8 µM | NCI-H23 36.7 µM | OVCAR-5 44.1 µM | OVCAR-8 35.4 µM

Cc1cn(C2CC(n3cncn3)C(C(C)O)O2)c(=O)[nH]c1=O (configuration not stated)
inactive: Malme-3M > 100 µM | SK-MEL-28 > 100 µM | HL-60 > 100 µM | SK-OV-3 > 100 µM | A549 > 100 µM | KM12 > 100 µM | HCT-116 > 100 µM | MOLT-4 > 100 µM | LOX IMVI > 100 µM | IGROV-1 > 100 µM | NCI-H23 > 100 µM | SK-MEL-5 > 100 µM | OVCAR-5 > 100 µM | OVCAR-8 > 100 µM

CC(C)(C)NN=C1C(C)(C)C(=NNC(C)(C)C)C1(C)C
inactive: Malme-3M > 100 µM | SK-MEL-28 > 100 µM | HL-60 > 100 µM | SK-OV-3 > 100 µM | A549 > 100 µM | HOP-62 > 100 µM | KM12 > 100 µM | HCT-116 > 100 µM | MOLT-4 > 100 µM | LOX IMVI > 100 µM | IGROV-1 > 100 µM | NCI-H23 > 100 µM | SK-MEL-5 > 100 µM | OVCAR-5 > 100 µM | OVCAR-8 > 100 µM

C/C(CN1C(=O)c2ccccc2C1=O)=N\NS(C)(=O)=O
inactive: Malme-3M > 100 µM | SK-MEL-28 > 100 µM | HL-60 > 100 µM | SK-OV-3 > 100 µM | A549 > 100 µM | HOP-62 > 100 µM | A498 > 100 µM | KM12 > 100 µM | HCT-116 > 100 µM | MOLT-4 > 100 µM | IGROV-1 > 100 µM | NCI-H23 > 100 µM | SK-MEL-5 > 100 µM | OVCAR-5 > 100 µM | OVCAR-8 > 100 µM

CCOC(=O)C1Oc2ccc([N+](=O)[O-])c3c2C1(O)CCC3 (configuration not stated)
inactive: Malme-3M > 100 µM | SK-MEL-28 > 100 µM | HL-60 > 100 µM | SK-OV-3 > 100 µM | A549 > 100 µM | HOP-62 > 100 µM | A498 56.2 µM | KM12 > 100 µM | MOLT-4 > 100 µM | LOX IMVI > 100 µM | IGROV-1 > 100 µM | NCI-H23 > 100 µM | SK-MEL-5 > 100 µM | OVCAR-5 > 100 µM | OVCAR-8 > 100 µM

N#C/C(=C/c1cccc(Oc2ccccc2)c1)c1ccccc1
inactive: Malme-3M > 100 µM | SK-MEL-28 > 100 µM | HL-60 64.7 µM | SK-OV-3 > 100 µM | A549 > 100 µM | A498 > 100 µM | KM12 > 100 µM | HCT-116 > 100 µM | MOLT-4 > 100 µM | LOX IMVI > 100 µM | IGROV-1 > 100 µM | NCI-H23 > 100 µM | SK-MEL-5 > 100 µM | OVCAR-5 34.6 µM | OVCAR-8 > 100 µM

O=C(O)CCSC(=O)Nc1cccc2ccccc12
inactive: Malme-3M > 100 µM | SK-MEL-28 > 100 µM | SK-OV-3 > 100 µM | A549 > 100 µM | HOP-62 > 100 µM | A498 > 100 µM | KM12 > 100 µM | HCT-116 > 100 µM | MOLT-4 > 100 µM | LOX IMVI > 100 µM | IGROV-1 > 100 µM | NCI-H23 > 100 µM | SK-MEL-5 > 100 µM | OVCAR-5 > 100 µM | OVCAR-8 > 100 µM

O=C(Cc1ccccc1)NN1C(=O)C(Cl)C1c1ccc(O)cc1 (configuration not stated)
inactive: Malme-3M > 100 µM | SK-MEL-28 > 100 µM | HL-60 62.7 µM | SK-OV-3 > 100 µM | A549 > 100 µM | HOP-62 > 100 µM | KM12 > 100 µM | HCT-116 > 100 µM | MOLT-4 > 100 µM | LOX IMVI > 100 µM | IGROV-1 > 100 µM | NCI-H23 > 100 µM | SK-MEL-5 > 100 µM | OVCAR-5 > 100 µM | OVCAR-8 > 100 µM

N/C(=N\N=C=C1C(=O)Nc2ccc(F)cc21)NO
inactive: Malme-3M > 100 µM | SK-MEL-28 > 100 µM | HL-60 47.5 µM | SK-OV-3 59.2 µM | A549 > 100 µM | HOP-62 > 100 µM | A498 > 100 µM | KM12 41.4 µM | HCT-116 > 100 µM | MOLT-4 > 100 µM | LOX IMVI > 100 µM | IGROV-1 > 100 µM | NCI-H23 > 100 µM | SK-MEL-5 > 100 µM | OVCAR-8 > 100 µM

CCO/C=C\C12CCCC1NC(c1ccccc1)(c1ccccc1)O2 (configuration not stated)
inactive: Malme-3M 25.9 µM | SK-MEL-28 40.5 µM | HL-60 18.2 µM | SK-OV-3 40.4 µM | A549 32.8 µM | HOP-62 41.5 µM | A498 53.5 µM | KM12 35.7 µM | HCT-116 30.7 µM | MOLT-4 19.2 µM | IGROV-1 28 µM | NCI-H23 28.4 µM | SK-MEL-5 17.1 µM | OVCAR-5 16.5 µM | OVCAR-8 39.2 µM

C=CCC1([C@H](C)[C@@H](OC(C)=O)c2cc(OC)c(OC)c(OC)c2)C[C@@H](OC)CCC1=O (some centres not stated)
inactive: Malme-3M 17.2 µM | SK-MEL-28 23.6 µM | HL-60 12.8 µM | SK-OV-3 59.4 µM | A549 27.7 µM | HOP-62 35.7 µM | KM12 16.4 µM | HCT-116 13.1 µM | MOLT-4 18.6 µM | IGROV-1 19.1 µM | NCI-H23 9.59 µM | SK-MEL-5 > 100 µM | OVCAR-8 17 µM

COc1ccc(/C=C\c2cc(OC)c(OC(C)=O)c(OC)c2)cc1
inactive: Malme-3M 19 µM | SK-MEL-28 3.43 µM | SK-OV-3 51.8 µM | A549 5.18 µM | HOP-62 5.92 µM | A498 14.2 µM | KM12 5.06 µM | HCT-116 8.53 µM | MOLT-4 6.43 µM | IGROV-1 29.7 µM | NCI-H23 13.3 µM | SK-MEL-5 5.55 µM | OVCAR-5 28.7 µM | OVCAR-8 8.89 µM

— ChEMBL document CHEMBL1201862, “PubChem BioAssay data set” (2004)
